Assay results: the OPERA property sets (Mansouri et al. 2018)
Where a SMILES comes first, the peptide text is derived from it.

Row | Compound | logP
1 | OC(CNCC(O)C1CCc2cc(F)ccc2O1)C1CCc2cc(F)ccc2O1 (stereo unspecified) | 4.04
2 | NCC(=O)NC(Cc1ccccc1)C(=O)NC(Cc1ccccc1)C(=O)O (stereo not drawn) (H-Gly-Phe-Phe-OH; configuration not given here) | -1.33
3 | O=C(NC1CCCCCCC1)NS(=O)(=O)c1cnccc1NC1CCCCCC1 | 5.34
4 | Cc1cccc(N2CCN(CC3CN=C(N)O3)CC2)c1 (stereo unspecified) | 1.46
5 | CCC(C)C(NC(=O)C(CCCNC(=N)N)NC(C)=O)C(=O)NC(Cc1ccccc1)C(N)=O (stereo not drawn) (Ac-Arg-Ile-Phe-NH2; configuration not given here) | -0.04
6 | CC(=NNC(=O)c1cccc(Br)c1)c1cnccn1 | 2.9
7 | CSc1cnc(C2=NC(C)(C(C)C)C(=O)N2)c(C(=O)O)c1 (stereo unspecified) | 0.75
8 | CCCCOC1C(=O)NC(=O)NC1=[N+]=[N-] (stereo unspecified) | -0.55
9 | COC(=O)c1ccc(C(=O)OC)c(N)c1 | 2.28
10 | O=C(Cc1ccccc1)c1c(O)c2ccc(Cl)cc2[nH]c1=O | 3.66
11 | Cc1oc2nc3oc(=O)c(C)c(C)c3cc2c1C | 2.71
12 | CC(C)CCCCCNc1[nH]cnc2ncnc1-2 | 4.16
13 | CC(N)C(=O)N1CCCC1C(=O)O (stereo unspecified) | -2.71
14 | C=CCC(=O)Nc1ccc(Cl)c(Cl)c1 | 3.63
15 | CCNN=Nc1ccc(C(N)=O)cc1 | 1.19
16 | COc1ccc(C2Cc3cc(C(F)(F)F)ccc3N(CCN(C)C)C(=O)C2OC(C)=O)cc1 (stereo unspecified) | 4.8
17 | CC(C)(O)C1CCC2(C)CCCC(O)(CO)C2C1 (stereo unspecified) | 1.54
18 | CCc1cccc2nc(N)nc(N)c12 | 1.69
19 | O=C1N=C(N2CCOCC2)CN1Cc1cccc(Cl)c1 | 1.3
20 | CCC(C)C(NC(=O)C(C)NC(=O)C(CC(C)C)NC(=O)C(N)CO)C(=O)NC(C(=O)O)C(C)C (stereo unspecified) (H-SLAIV-OH; configuration not given here) | -1.94
21 | CC1(C(=O)O)CSC(c2cc(O)ccc2O)=N1 (stereo unspecified) | 1.3
22 | O=S1CCCC1 | -0.96
23 | CCC(C)Nc1nc(N)nc(Cl)n1 (stereo unspecified) | 1.86

Row | Compound | logP
24 | COC(=O)c1cc2cccc3ccc4cccc1c4c32 | 4.73
25 | O=C1Nc2ccc(Cl)cc2C(c2ccccc2F)=NC1O (stereo unspecified) | 1.81
26 | CC1=CC(=C2C(=O)c3ccccc3C2=O)C=C(C)N1CCCNC(=O)N(CCCl)N=O | 2.84
27 | Cc1ccc(-n2c(Cc3c(C)[nH]c4ccccc34)n[nH]c2=S)cc1 | 3
28 | O=C(NO)C(=Cc1ccccc1)C(=O)NCc1ccc(F)cc1 | 1.7
29 | CCCCNCC(C)O (stereo unspecified) | 1.22
30 | O=c1[nH]c2cc(Cl)ccc2c(O)c1-c1cccc(Cc2ccc(CCN3CCOCC3)cc2)c1 | 5.2
31 | CC(C)CC(NC(=O)C(CC(C)C)NC(=O)C(NC(=O)C(C)N)C(C)C)C(=O)O (stereo unspecified) (H-AVLL-OH; configuration not given here) | -1.74
32 | COC(=O)C(C)NP(=O)(OCC1C=CC(n2cc(C)c(=O)[nH]c2=O)O1)Oc1ccccc1Cl (stereo unspecified) | 1.37
33 | CCCC(=NOCC)C1=C(O)CC2(CCSCC2)OC1=O | 2.9
34 | CC(=O)OCC1OC(n2cc(F)c(=O)[nH]c2=O)C(OC(C)=O)C1OC(C)=O (stereo unspecified) | -0.25
35 | CNC(=S)NN=C(C)CSCC(C)=NNC(=S)NC | 1.38
36 | C=C(C)C(=O)OCCCCCCCCCCCC | 6.57
37 | CCCCNc1ncnc2c1ncn2C1OC(CO)C(O)C1O (stereo unspecified) | 1.1
38 | CN1CCc2cccc(Cl)c2CC1 | 2.92
39 | CSCCC(NC(=O)C(Cc1ccccc1)NC(=O)CNC(=O)C(C)NC(=O)C(N)Cc1ccc(O)cc1)C(=O)O (stereo unspecified) | -0.59
40 | COc1ccc(C2Cc3c(cccc3C(F)(F)F)N(CCN(C)C)C(=O)C2C)cc1 (stereo unspecified) | 5.6
41 | CCCc1nc(N)nc(N2CCCCC2)n1 | 2.55
42 | Oc1cccc(CNc2ncnc3nc[nH]c23)c1 | 1.56
43 | CCOc1cccc(COC(=O)C2C(C=C(C)C)C2(C)C)c1 (stereo unspecified) | 5.87
44 | NC(=O)c1cc(OCCNCC(O)CON=C(C2CC2)C2CC2)ccc1O (stereo unspecified) | 1.69
45 | CCN(CC)CCSC(=NO)c1nc(Cc2ccccc2)no1 | 2.55
46 | COc1ccc(C2Cc3cc(SC(C)(C)C)ccc3N(CCN(C)C)C(=O)C2OC(C)=O)cc1 (stereo unspecified) | 5.6
